According to patent US5569668A (priority 1995, dated 1996):
In brackets after ≈: the same amount, converted by molar mass. Read-outs that look alike come from different tables or passages of the source.

How the values were obtained:
Assay type in all cases: cell-based
[1] = system: S. aureus 0017; assay: microbe, parasite or virus in culture; settings: Staphylococcus aureus, 0017, 24 h; read-out: Minimum Inhibitory Concentration (MIC)
[2] = system: S. aureus 0012; assay: microbe, parasite or virus in culture; settings: Staphylococcus aureus, 0012, 24 h; read-out: Minimum Inhibitory Concentration (MIC)
[3] = system: Botrytis cinerea; assay: MIC of nematophin on candidate microbial pathogens (Botrytis cinerea); settings: 48 h, 2 d, 24° C., Table 1, read-out: Minimum Inhibitory Concentration (MIC)
[4] = system: Escherichia coli ATCC25922; assay: MIC of nematophin on candidate microbial pathogens (Escherichia coli ATCC25922); settings: 24 h, 35° C., Table 1, read-out: Minimum Inhibitory Concentration (MIC)
[5] = system: Bacillus subtilis; assay: MIC of nematophin on candidate microbial pathogens (Bacillus subtilis); settings: 24 h, 35° C., Table 1, read-out: Minimum Inhibitory Concentration (MIC)
[6] = system: antibiotic resistant Staphylococcus; settings: conclusion from Table 1 MICs
[7] = system: Staphylococcus aureus ATCC29213; assay: MIC of nematophin and its derivatives on Staphylococcus aureus ATCC29213
[8] = system: Phytophthora infestans; assay: microbe, parasite or virus in culture; settings: in Secale cereale, 96 h, read-out: Minimum Inhibitory Concentration (MIC)
[9] = 24 h, 35° C., Table 1, read-out: Minimum Inhibitory Concentration (MIC)
[10] = Table 2, similar bioassays as for nematophin, read-out: Minimum Inhibitory Concentration (MIC) of the derivatives of nematophin

Compound `CCC(C)C(=O)C(=O)NCCc1c[nH]c2ccccc12` (racemic) [SID, 3-indoleethyl(3'-methyl-2'-oxo)pentanamide] has an MIC [1] of 1.5 µg/mL (≈ 5.51 µM), an MIC [2] of 1.5 µg/mL (≈ 5.51 µM) and an MIC [3] of 12 µg/mL. For the same compound, the MIC [4] was over 100 µg/mL, the MIC [5] was 12 µg/mL and the “antibiotic properties, in particular against antibiotic resistant Staphylococcus” value [6] was “potent properties”. It also gave an MIC [7, 9] of 1.5 µg/mL and an MIC [8] of 2.5 µg/mL (≈ 9.18 µM).
`CCC(C)C(=O)C(=O)NCCc1c[nH]c2ccccc12` (single isomer, unassigned) [NID, 3-indoleethyl 3-methyl-2-oxo-pentanamide] gave an MIC [1] of 0.7 µg/mL (≈ 2.57 µM), an MIC [2] of 0.7 µg/mL (≈ 2.57 µM) and an MIC [3] of 12 µg/mL. For the same compound, the MIC [4] was over 100 µg/mL, the MIC [5] was 12 µg/mL and the “antibiotic properties, in particular against antibiotic resistant Staphylococcus” value [6] was “potent properties”. The MIC [7, 9] was 0.7 µg/mL.
Work on `CCC(C)C(=O)C(=O)NCCc1c[nH]c2ccc(C)cc12` (stereo not shown) [5-MeIN] yielded an MIC [7, 10] of 3 µg/mL.
`CCC(C)C(=O)C(=O)NCCc1c[nH]c2ccc(OC)cc12` (stereo not shown) [5-MeOIN] showed an MIC [7, 10] of 3 µg/mL.
With `CCC(C)C(=O)C(=O)NCCc1c[nH]c2cc(F)ccc12` (stereo not shown) [6-FIN] the MIC [7, 10] was 0.7 µg/mL.
Compound `CCC(=O)C(=O)NCCc1c[nH]c2ccccc12` [BAMIDE, 3-indoleethyl(2'-oxo)butanamide] has an MIC [7, 10] of 100 µg/mL.
With `CC(C)C(=O)C(=O)NCCc1c[nH]c2ccccc12` [MAMIDE] the MIC [7, 10] was 3 µg/mL.
With `CCC(C)C(=O)C(=O)OCCc1c[nH]c2ccccc12` (stereo not shown) [OIN, 3-indoleethyl(3'-methyl-2'-oxo)pentanoate] the MIC [7, 10] was 25 µg/mL.
Compound `CC(=O)C(=O)NCCc1c[nH]c2ccccc12` [PAMIDE, 3-indoleethyl(2'-oxo)propanamide] has an MIC [7, 10] of 100 µg/mL.
